# Laboratory results taken from US10618918B2, “Substituted boronic acids as antimicrobials” (priority 2015, dated 2020).
# Legend:
# [1] = system: ec308 SHV-5; experiment: Tigemonam potentiation (MPC@4), strain ec308 SHV-5; assay type: cell-based
# [2] = system: ec302 TEM-10; experiment: Tigemonam potentiation (MPC@4), strain ec302 TEM-10; assay type: cell-based
# [3] = system: ECL1002; experiment: Tigemonam potentiation (MPC@4), strain ECL1002; assay type: cell-based
# [4] = system: EC1010 CMY-6; experiment: Tigemonam potentiation (MPC@4), strain EC1010 CMY-6; assay type: cell-based
# [5] = system: KP1004 KPC-2; experiment: Biapenem potentiation (MPC@1), strain KP1004 KPC-2; assay type: cell-based; conditions: minimum BLI concentration inhibiting growth with biapenem 1 μg/mL; tested up to 40 μg/mL
# Procedure: (§1) Biapenem was present in the test medium at 1 μg/mL. […] Table 3 summarizes the BLI potency of biapenem potentiation (MPC@1) for two strains overexpressing class A (KPC) and class D (OXA-48) carbapenemases. Biapenem MIC for each strain is also shown.
# [6] = system: KP1086 OXA-48; experiment: Biapenem potentiation (MPC@1), strain KP1086 OXA-48; assay type: cell-based; conditions: minimum BLI concentration inhibiting growth with biapenem 1 μg/mL; tested up to 40 μg/mL
# Procedure: as §1
# [7] = system: AB1053 OXA-72; experiment: Meropenem potentiation (MPC@8), strain AB1053 OXA-72; assay type: cell-based, Acinetobacter baumannii; conditions: minimum BLI concentration inhibiting growth with meropenem 8 μg/mL; tested up to 20 μg/mL
# [8] = system: AB1054 OXA-23; experiment: Meropenem potentiation (MPC@8), strain AB1054 OXA-23; assay type: cell-based, Acinetobacter baumannii; conditions: minimum BLI concentration inhibiting growth with meropenem 8 μg/mL; tested up to 20 μg/mL
# [9] = target: T1, purified class A, C and D enzymes (β-lactamases) (Acinetobacter baumannii, UniProt Q9L4P2); experiment: biochemical; assay type: biochemical; conditions: purified OXA-23; nitrocefin (NCF) as reporter substrate
# T1 construct: rows headed: Ki (OXA-23, NCF), uM; other: purified OXA-23; nitrocefin (NCF) as reporter substrate
# T1 sequence (Q9L4P2 whole entry): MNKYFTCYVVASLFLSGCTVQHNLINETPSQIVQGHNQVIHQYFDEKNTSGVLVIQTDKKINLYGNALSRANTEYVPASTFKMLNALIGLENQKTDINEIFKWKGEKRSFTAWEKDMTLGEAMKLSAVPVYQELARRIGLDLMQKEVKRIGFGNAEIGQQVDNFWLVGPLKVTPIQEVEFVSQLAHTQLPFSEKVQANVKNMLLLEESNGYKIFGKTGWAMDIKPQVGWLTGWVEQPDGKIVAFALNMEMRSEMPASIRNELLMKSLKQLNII
# [10] = target: purified class A, C and D enzymes (β-lactamases) (Escherichia coli, UniProt Q9L5C7); experiment: biochemical; assay type: biochemical; conditions: purified CTX-M-14; nitrocefin (NCF) as reporter substrate
# Chain of purified class A, C and D enzymes (β-lactamases) (Escherichia coli, UniProt Q9L5C7) (Q9L5C7 entry or part of it): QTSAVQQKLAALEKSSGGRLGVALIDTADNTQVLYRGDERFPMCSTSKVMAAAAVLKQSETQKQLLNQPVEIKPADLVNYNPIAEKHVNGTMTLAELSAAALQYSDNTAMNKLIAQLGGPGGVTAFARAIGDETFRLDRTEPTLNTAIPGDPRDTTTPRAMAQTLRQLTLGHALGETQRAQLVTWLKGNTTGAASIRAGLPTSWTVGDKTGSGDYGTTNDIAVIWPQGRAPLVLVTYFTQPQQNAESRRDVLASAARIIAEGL
# [11] = target: purified class A, C and D enzymes (β-lactamases) (Klebsiella pneumoniae, UniProt Q6XEC0); experiment: biochemical; assay type: biochemical; conditions: purified OXA-48; nitrocefin (NCF) as reporter substrate
# [12] = target: purified class A, C and D enzymes (β-lactamases) (Klebsiella pneumoniae, UniProt Q9F663); experiment: biochemical; assay type: biochemical; conditions: purified KPC-2; nitrocefin (NCF) as reporter substrate
# [13] = target: T2, purified class A, C and D enzymes (β-lactamases) (UniProt P0AD64, L31Q/G234S/E235K, species not given); experiment: biochemical; assay type: biochemical; conditions: purified SHV-12; nitrocefin (NCF) as reporter substrate; read-out: Ki (SHV-12, NCF)
# T2 construct: Ki (SHV-12, NCF), uM; other: purified SHV-12; nitrocefin (NCF) as reporter substrate
# T2 sequence (P0AD64 1-286 L31Q/G234S/E235K): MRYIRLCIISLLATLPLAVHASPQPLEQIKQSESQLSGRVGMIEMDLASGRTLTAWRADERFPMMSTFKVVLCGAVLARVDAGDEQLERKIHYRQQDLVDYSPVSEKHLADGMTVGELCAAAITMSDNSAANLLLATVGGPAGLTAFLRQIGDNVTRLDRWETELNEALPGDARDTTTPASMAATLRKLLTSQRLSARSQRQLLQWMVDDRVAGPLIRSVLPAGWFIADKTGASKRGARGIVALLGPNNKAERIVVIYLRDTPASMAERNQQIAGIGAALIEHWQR
# [14] = target: purified class A, C and D enzymes (β-lactamases) (UniProt P62593, R162S/E237K, species not given); experiment: biochemical; assay type: biochemical; conditions: purified TEM-10; nitrocefin (NCF) as reporter substrate
# [15] = system: ECL1002; experiment: Aztreonam potentiation (MPC@4), strain ECL1002; conditions: minimum BLI concentration inhibiting growth with aztreonam 4 μg/mL; tested up to 40 μg/mL
# [16] = system: ec308 SHV-5; experiment: Aztreonam potentiation (MPC@4), strain ec308 SHV-5; conditions: minimum BLI concentration inhibiting growth with aztreonam 4 μg/mL; tested up to 40 μg/mL
# [17] = system: ec302 TEM-10; experiment: Aztreonam potentiation (MPC@4), strain ec302 TEM-10; conditions: minimum BLI concentration inhibiting growth with aztreonam 4 μg/mL; tested up to 40 μg/mL
# [18] = system: KP1004 KPC-2; experiment: Aztreonam potentiation (MPC@4), strain KP1004 KPC-2; conditions: minimum BLI concentration inhibiting growth with aztreonam 4 μg/mL; tested up to 40 μg/mL
# [19] = system: EC1010 CMY-6; experiment: Aztreonam potentiation (MPC@4), strain EC1010 CMY-6; conditions: minimum BLI concentration inhibiting growth with aztreonam 4 μg/mL; tested up to 40 μg/mL
# [20] = system: KP1010 SHV-12; experiment: Aztreonam potentiation (MPC@4), strain KP1010 SHV-12; conditions: minimum BLI concentration inhibiting growth with aztreonam 4 μg/mL; tested up to 40 μg/mL
# [21] = system: KP1010 SHV-12; experiment: Tigemonam potentiation (MPC@4), strain KP1010 SHV-12
# [22] = system: KP1005 CTX-M-14; experiment: Aztreonam potentiation (MPC@4), strain KP1005 CTX-M-14; conditions: minimum BLI concentration inhibiting growth with aztreonam 4 μg/mL; tested up to 40 μg/mL
# [23] = system: KP1009 CTX-M-15; experiment: Aztreonam potentiation (MPC@4), strain KP1009 CTX-M-15; conditions: minimum BLI concentration inhibiting growth with aztreonam 4 μg/mL; tested up to 40 μg/mL
# [24] = system: KP1005 CTX-M-14; experiment: Tigemonam potentiation (MPC@4), strain KP1005 CTX-M-14
# [25] = system: KP1009 CTX-M-15; experiment: Tigemonam potentiation (MPC@4), strain KP1009 CTX-M-15
# [26] = minimum BLI concentration inhibiting growth with tigemonam 4 μg/mL, tested up to 40 μg/mL
compound,measurement,setting,value
"Disodium; 4,4-dihydroxy-8-(1H-triazol-4-ylmethoxy)-5-oxa-4-boranuidabicyclo[4.4.0]deca-1(6),7,9-triene-7-carboxylate [Compound 24]",TIG MPC4 SHV-5 ec308,[1]; [26],X (X = MPC@4 ≤ 5 μg/mL)
same,TIG MPC4 TEM-10 ec302,[2]; [26],X (X = MPC@4 ≤ 5 μg/mL)
same,TIG MPC4 ECL1002,[3]; [26],X (X = MPC@4 ≤ 5 μg/mL)
same,TIG MPC4 CMY-6 EC1010,[4]; [26],X (X = MPC@4 ≤ 5 μg/mL)
same,BPM MPC1 KP1004 KPC-2,[5],X (X = MPC@1 ≤ 5 μg/mL)
same,BPM MPC1 OXA-48 KP1086,[6],X (X = MPC@1 ≤ 5 μg/mL)
same,MPM MPC8 AB1053 OXA-72,[7],X (X = MPC@1 ≤ 5 μg/mL)
same,MPM MPC8 AB1054 OXA-23,[8],X (X = MPC@1 ≤ 5 μg/mL)
same,Ki,[9],< 100 nM
same,Ki,[10],< 100 nM
same,Ki,[11],< 100 nM
same,Ki,[12],< 100 nM
same,Ki,[13],< 100 nM
same,Ki,[14],< 100 nM
same,AZT MPC4 ECL1002,[15],X (X = MPC@4 ≤ 5 μg/mL)
same,AZT MPC4 SHV-5 ec308,[16],X (X = MPC@4 ≤ 5 μg/mL)
same,AZT MPC4 TEM-10 ec302,[17],X (X = MPC@4 ≤ 5 μg/mL)
same,AZT MPC4 KPC-2 KP1004,[18],X (X = MPC@4 ≤ 5 μg/mL)
same,AZT MPC4 CMY-6 EC1010,[19],X (X = MPC@4 ≤ 5 μg/mL)
same,AZT MPC4 SHV-12 KP1010,[20],X (X = MPC@4 ≤ 5 μg/mL)
same,TIG MPC4 SHV-12 KP1010,[21]; [26],X (X = MPC@4 ≤ 5 μg/mL)
same,AZT MPC4 CTX-M-14 KP1005,[22],X (X = MPC@4 ≤ 5 μg/mL)
same,AZT MPC4 CTX-M-15 KP1009,[23],X (X = MPC@4 ≤ 5 μg/mL)
same,TIG MPC4 CTX-M-14 KP1005,[24]; [26],Z (Z = MPC@4 > 20 μg/mL)
same,TIG MPC4 CTX-M-15 KP1009,[25]; [26],X (X = MPC@4 ≤ 5 μg/mL)
"CC1(C)[C@H](NC(=O)/C(=N\OCC(=O)O)c2csc(N)n2)C(=O)N1OS(=O)(=O)O [Tigemonam, reference compound]",Tigemonam MIC,"[1]; strain ec308 SHV-5, tigemonam alone",>64 µg/mL
same,Tigemonam MIC,"[2]; strain ec302 TEM-10, tigemonam alone",>64 µg/mL
same,Tigemonam MIC,"[3]; strain ECL1002, tigemonam alone",32 µg/mL
same,Tigemonam MIC,"[4]; strain EC1010 CMY-6, tigemonam alone",16 µg/mL
same,Tigemonam MIC,"[21]; strain KP1010 SHV-12, tigemonam alone",>64 µg/mL
same,Tigemonam MIC,[24],>64 µg/mL
same,Tigemonam MIC,[25],>64 µg/mL
